Laboratory results from patent publication US20030109418A1, “Methods for identifying compounds for inhibition of neoplastic lesions, and pharmaceutical compositions containing such compounds” (priority 1999, published 2003).
Where a name gives a salt, the structure may show the parent alone.

Columns and labels:
MDA-MB-435 = experiment: Growth inhibition, neutral red assay, MDA-MB-435; format: cell-based, human; settings: free base, five days
Procedure: (§1) Compound I's activity is not confined to activity against colon cancer cell lines or animal models of colon cancer. It has a broad range of anti-neoplastic effects in various neoplastic cell lines. Various types of human cancer cell lines were propagated under sterile conditions in RPMI 1640 medium with 10% fetal bovine serum, 2 mM L-glutamine and sodium bicarbonate. To determine growth inhibitory effects of Compound I, cells were seeded in 96-well plates at a density of 1000 cells per well. Twenty-four hours after plating, the cells were dosed with various concentrations of the free base of Compound I solubilized in DMSO (final concentration 0.1%). The effect of the drug on tumor cell growth was determined using the neutral red cytotoxicity assay following five days of continuous treatment. Neutral red is a dye that is selectively taken up by viable cells by an ATP-dependent transport mechanism.

[1] = system: aberrant crypt foci (ACF) in colon; experiment: Azoxymethane-induced aberrant crypt foci model; format: in vivo, rat; settings: for Mean ACF/colon (+ SE): free base, 5 weeks
Procedure: The growth inhibition IC50 value obtained for Compound I was 0.7 μM in the SW-480 cell line. […] This established rodent model of azoxymethane (“AOM”)-induced carcinogenesis was used to assess the effects of Compound I (free base and salt) on colon cancer development in vivo. ACF are precursors to colonic tumors, and ACF inhibition is predictive of chemo-preventive efficacy.
In the rats in this experiment, ACF initiation was achieved by two consecutive weekly injections of the carcinogen. Compound I was administered one week prior to ACF initiation and for the duration of the experiment. ACFs were scored after 5 weeks of treatment. Compound I was administered orally to male Fisher 344 rats in the rat chow. Daily food consumption (mg/kg body weight) varied over the course of the study, and therefore Compound I dose was expressed a grams per kg of diet to provide a basis of comparison between doses. […] The experimental groups gained less weight than the controls, which was indicative of bioavailability. However, the weight differences were less than 10% and not considered to affect ACF formation.
The free base of Compound I inhibited ACF formation as measured by a reduction of crypts per colon. With the exception of the low dose group (only 0.5 g/kg diet), the differences between treatment and control groups were substantial, and statistically significant in the case of the 1.0 and 2.0 g/kg diet group.

PC-3 = experiment: Growth inhibition, neutral red assay, PC-3; format: cell-based, human; settings: free base, five days
Procedure: as §1

[2] = system: HT-29 human colon carcinoma cell line; experiment: Growth inhibition, SRB assay, HT-29; format: cell-based; design: Growth Inhibition: key to the marks not given beside the values

Structure (SMILES) | GI50 (MDA-MB-435; Homo sapiens, MDA-MB-435, 120 h) [µM] | GI90 μM, MDA-MB-435 (MDA-MB-435) [µM] | ACF % Control ([1]; 0.5 g/kg diet) [%] | Mean ACF/colon (+ SE) ([1]; 0.5 g/kg diet) | ACF % Control ([1]; 1 g/kg diet) [%] | Mean ACF/colon (+ SE) ([1]; 1 g/kg diet) | ACF % Control ([1]; 1.5 g/kg diet) [%] | Mean ACF/colon (+ SE) ([1]; 1.5 g/kg diet) | ACF % Control ([1]; 2.0 g/kg diet) [%] | Mean ACF/colon (+ SE) ([1]; 2.0 g/kg diet) | body weight differences versus controls ([1]; male Fisher 344 rats, drug in chow) | GI50 (PC-3; Homo sapiens, PC-3, 120 h) [µM] | GI90 μM, PC-3 (PC-3) [µM] | IC50 ([2]; Homo sapiens, HT-29, 144 h, six days, SRB assay, read-out: IC50, growth of HT-29 cells) [µM] | inhibition at 100 µM ([2]; Homo sapiens, HT-29, read-out: Growth-inhibitory activity, % Inhibition at 100 μM) [%] | Growth Inhibition ([2]; qualitative activity profile)
CC1=C(CC(=O)NCc2ccccc2)c2cc(F)ccc2/C1=C\c1ccncc1 [Compound I, (Z)-5-fluoro-2-methyl-(4-pyridylidene)-3-(N-benzyl)indenylacetamide hydrochloride] | 1.6 | 2.3 | 100 | 149 ± 14 | 75 | 111 ± 9 | 89 | 132 ± 4 | 72 | 107 ± 15 | less than 10% | 1.7 | 82.5 | – | – | –
CC1=C(CC(=O)O)c2cc(F)ccc2/C1=C\c1ccc(S(C)(=O)=O)cc1 [Exisulind, 5-fluoro-2-methyl-1-(p-methylsulfonylbenzylidene)-3-indenylacetic acid] | – | – | – | – | – | – | – | – | – | – | – | – | – | ~200 | < 50 | ++
